The text below walks through data of ChEMBL document CHEMBL6096699, “Tröger's Base as a Potential Bridge to Type-I Photosensitizers: Mechanism and Antitumor Applications” (J Med Chem, 2025).

In data set [1] the test system is Mitochondrial membrane. The data set can be described thus: Induction of mitochondrial membrane potential loss in human A549 cells assessed as increase in green fluorescence of JC-1 monomers at 0.4 to 1.2 uM incubated for 24 hrs with irradiation of LED light at 1.8 mW cm/2 by light microscopy analysis. In kind it is cell membranes. The settings on record: dose 0.4-1.2 µM.

Data set [2] can be described thus: Phototoxicity against human A549 cells assessed as reduction in cell proliferation irradiated with LED light at 1.8 mWcm/2 for 2 hrs and measured after 24 hrs under normoxia condition by MTT assay. In kind it is functional, cell-based. The settings on record: A549, light or radiation study. For orientation: Tetrazolium dyes change colour on reduction, which living cells bring about.

Data set [3] has as its system A549. The data set can be described thus: Induction of intracellular ROS generation in human A549 cells by measuring red fluorescence at 0.4 to 1.2 uM incubated for 24 hrs in presence of LED light irradiation at 1.8 mW cm/2 by DHE based fluorescence microscopy analysis. The data set is classed as functional, cell-based. The note with it: dose 0.4-1.2 µM.
The nature of data set [4]: Drug localization in ER of human A549 cells assessed as colocalization by ER-Tracker green staining based analysis. The data set is classed as ADME, subcellular, Endoplasmic reticulum.
Data set [5] is described as follows: Developmental toxicity in wild type AB zebrafish assessed as survival rate at 50 uM incubated for 72 hrs under condition relative to control. Set-up: species or system Danio rerio. The note with it: in vivo.
The nature of data set [6]: Developmental toxicity in wild type AB zebrafish assessed as effect on heart at 50 uM incubated for 72 hrs under dark condition. Set-up: species or system Danio rerio. The note with it: in vivo.
Data set [7] can be described thus: Photophysical property of the compound assessed as fluorescence quantum yield. In kind it is physicochemical.
The subject of data set [8] is A549. The data set can be described thus: Activation of MAPK pathway in human A549 cells assessed as effect on MAPK protein expression at 2.5 to 5 uM by Western blot analysis. The data set is classed as cell-based. The settings on record: filed as activator, dose 2.5-5 µM. Background: A western blot detects proteins with antibodies after separation by electrophoresis.

Data set [9] deals with A549. The data set can be described thus: Induction of apoptosis in human A549 cells assessed as upregulation of cleaved PARP expression at 2.5 to 5 uM with irradiation of LED light at 1.8 mW cm/2 by Western blot analysis. The data set is classed as functional, cell-based. The note with it: dose 2.5-5 µM.
The nature of data set [10]: Developmental toxicity in wild type AB zebrafish assessed as hatching rate at 50 uM incubated for 72 hrs under dark condition. Set-up: species or system Danio rerio. The settings on record: in vivo.
Data set [11] relates to MDA-MB-231. The data set can be described thus: Phototoxicity against human MDA-MB-231 cells assessed as reduction in cell proliferation at 0.156 to 10 uM irradiated with LED light at 1.8 mWcm/2 for 2 hrs and measured after 24 hrs under normoxia condition by MTT assay. The data set is classed as functional, cell-based. The settings on record: dose 0.156-10 µM, time 26.0 hrs.

A short description of data set [12]: Developmental toxicity in wild type AB zebrafish assessed as effect on heart at 50 uM incubated for 72 hrs followed by LED light irradiation at 1.8 mW cm/2 relative to control. Further details: species or system Danio rerio. The settings on record: in vivo.
Data set [13] concerns A549. The data set can be described thus: Inhibition of cell migration in human A549 cells at 0.25 uM preincubated for 12 hrs followed by LED light irradiation 1.8 mW cm/2 for 2 hrs and measured after 48 hrs by wound healing assay. In kind it is functional, cell-based. The note with it: time 62.0 hrs.
The nature of data set [14]: Induction of type-1 ROS generation in tetrahydrofuran at 0.5 uM followed by LED white light irradiation at 1.8 mWcm/2 for 300 sec by DCFH staining based analysis. In kind it is functional.

Active and inactive are the calls of the source. The rule behind the calls is not given here.

As a reminder, the IC50 is the concentration at which inhibition is half-maximal. As for `CCN(CC)c1ccc2cc(C(=O)/C=C/c3ccc4c(c3)CN3CN4Cc4cc(Br)ccc43)c(=O)oc2c1`, the result in data set [1], in [3], in [9], in [11] and in data set [14] was Active. Also, the IC50 in [2] came out at 460 nM. Also, the Drug uptake result in data set [4] is on record as “Active”. Further, the survival at 72 h, 50 µM in [5] turned out to be 100%. The Activity result is “Non-toxic” in data set [6], “Active; Compound Showed Little Change In Protein Expression” in data set [8], 100% in data set [10] and “Non-toxic” in data set [12]. The Fluorescence quantum yield in data set [7] is on record as 0.12. Moreover, in [13], the inhibition entry is “Active”.
